Data: patent US9096639B2, “17-hydroxy-17-pentafluorethyl-estra-4,9(10)-dien-11-acyloxyalkylene phenyl derivatives, methods for the production thereof and use thereof for treating diseases” (Bayer Intellectual Property GmbH, priority 2009, dated 2015)
Structures can show the parent of a compound that is named as a salt.

Tests used:
[1] = Determination of hydrolytic stability (5:1 dioxane/buffer, HPLC); format: physicochemical; conditions: 5:1 dioxane/buffer solution, test ended after 24 or 192 hours, read-out: Hydrolytic stability t1/2
Method: The ester to be analyzed was dissolved in each case in a 5:1 mixture of dioxane and buffer solution (pH 1.2, pH 5.0 or pH 8.0) at 23° C. At different times, the content of ester and hydrolysis products (8S,11R,13S,14S,1 7S)-17-hydroxy-11-[4-((R)-1-hydroxyethyl)phenyl]-13-methyl-17-pentafluoroethyl-1,2,6,7,8,11,12,13,14,15,16,17-dodecahydrocyclopenta[a]phenanthren-3-one and/or (8S,11R,13S,14S,17S)-17-hydroxy-11-[4-((S)-1-hydroxyethyl)phenyl]-1 3-methyl-17-pentafluoroethyl-1,2,6,7,8,11,12,13,14,15,16,17-dodecahydrocyclopenta[a]phenanthren-3-one was determined by HPLC. The test was ended after 24 hours or 192 hours.

[2] = Determination of stability in human plasma; format: in vitro ADME
Method: (§1) A stock solution of 1.0 mg of the substance to be tested in a 9:1 mixture of acetonitrile and dimethyl sulphoxide was prepared. 20 μl of this stock solution were added at 37° C. to 1 ml of human plasma or rat plasma. To determine the content, 100 μl samples were each taken at different times. The enzyme activity was blocked by adding 300 μl of acetonitrile, the samples were centrifuged at 5000 rpm over 10 minutes and, in the supernatant, the content of ester and hydrolysis products (8S,11R,13S,14S,17S)-17-hydroxy-11-[4-((R)-1-hydroxyethyl)phenyl]-1 3-methyl-17-pentafluoroethyl-1,2,6,7,8,11,12,13,14,15,16,17-dodecahydrocyclopenta[a]phenanthren-3-one and/or (8S,11R,13S,14S,17S)-17-hydroxy-11-[4-((S)-1-hydroxyethyl)phenyl]-13-methyl-17-pentafluoroethyl-1,2,6,7,8,11,12,13,14,15,16,17-dodecahydrocyclopenta[a]phenanthrene-3-one was determined by HPLC. The concentration-time curves were used to calculate the degradation kinetics. The stability of the substance tested was reported as the half-life.

[3] = Determination of stability in rat plasma; format: in vitro ADME; conditions: 37° C., read-out: Stability t1/2 in rat plasma (converted)
Method: as §1

[4] = molecular target: T1, human progesterone receptor A (Homo sapiens, UniProt P06401); experiment: Progesterone receptor transactivation test in stably transfected SK-N-MC cells (PR-A, MMTV-LUC reporter); format: cell-based; conditions: 0.1 nmol/l promegestone, 24 hours, read-out: PR-A IC50 (antagonistic potency)
T1 construct: expressed in transfected cells; host or cells: SK-N-MC human neuroblastoma cells, stably transfected with pRChPR-A-neo and pMMTV-LUC
T1 sequence (P06401 1-769 isoform P06401-2): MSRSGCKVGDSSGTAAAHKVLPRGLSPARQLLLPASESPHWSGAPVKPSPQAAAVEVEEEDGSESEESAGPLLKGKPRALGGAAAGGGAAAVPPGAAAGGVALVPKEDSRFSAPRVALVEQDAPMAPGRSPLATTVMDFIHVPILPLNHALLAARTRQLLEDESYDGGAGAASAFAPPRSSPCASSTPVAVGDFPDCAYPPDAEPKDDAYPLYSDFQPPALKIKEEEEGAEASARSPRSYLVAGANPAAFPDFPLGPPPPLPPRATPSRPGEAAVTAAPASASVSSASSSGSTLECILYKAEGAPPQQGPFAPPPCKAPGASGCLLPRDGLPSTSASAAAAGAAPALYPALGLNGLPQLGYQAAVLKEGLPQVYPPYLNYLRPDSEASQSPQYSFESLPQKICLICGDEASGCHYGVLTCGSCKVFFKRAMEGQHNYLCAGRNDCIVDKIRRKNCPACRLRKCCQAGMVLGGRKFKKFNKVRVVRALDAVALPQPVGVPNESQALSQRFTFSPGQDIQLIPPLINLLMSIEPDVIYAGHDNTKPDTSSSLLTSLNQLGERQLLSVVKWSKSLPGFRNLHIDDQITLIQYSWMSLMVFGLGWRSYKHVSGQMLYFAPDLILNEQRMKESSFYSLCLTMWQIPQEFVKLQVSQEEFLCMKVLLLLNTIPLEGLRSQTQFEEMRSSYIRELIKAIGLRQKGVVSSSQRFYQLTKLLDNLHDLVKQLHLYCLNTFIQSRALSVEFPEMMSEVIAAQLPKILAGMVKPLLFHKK
Method: (§2) Progesterone receptor-antagonistic action in stable transfectants of human neuroblastoma cells (SK-N-MC cells) with the human progesterone A or progesterone B receptor and an MN-LUC reporter construct SK-N-MC cells (human neuroblastoma cells) which have been stably transfected with plasmids expressing the human progesterone receptor B (pRChPR-B-neo) or the human progesterone receptor A (pRChPR-A-neo) and a reporter construct (pMMTV-LUC) were incubated for 24 hours either in the absence (negative control) or in the presence of ascending amounts of the particular test compound (0.01 nmol/l, 0.1 nmol/l, 1 […], 100 nmol/l and […]), in order to determine the agonistic efficacy. As a positive control of the reporter gene induction, the cells were treated with the synthetic gestagen promegestone (0.01 nmol/l, 0.1 nmol/l, 1 nmol/l, 10 nmol/l, 100 nmol/l and […]). To determine the antagonistic activity, the cells were treated with 0.1 nmol/l promegestone and additionally with ascending amounts of the particular test compound (0.01 nmol/l, 0.1 nmol/l, 1 nmol/l, 10 nmol/l, 100 nmol/l and […]). The activity of the reporter gene LUC (LUC=luciferase) was determined in the cell lysates and measured as RLU (relative light units). All measurements are reported as % efficacy and as EC50 and IC50 concentrations.

[5] = molecular target: T2, human progesterone receptor B (Homo sapiens, UniProt P06401); experiment: Progesterone receptor transactivation test in stably transfected SK-N-MC cells (PR-B, MMTV-LUC reporter); format: cell-based; conditions: 0.1 nmol/l promegestone, 24 hours, read-out: PR-B IC50 (antagonistic potency)
T2 construct: expressed in transfected cells; host or cells: SK-N-MC human neuroblastoma cells, stably transfected with pRChPR-B-neo and pMMTV-LUC
T2 sequence (P06401 1-933): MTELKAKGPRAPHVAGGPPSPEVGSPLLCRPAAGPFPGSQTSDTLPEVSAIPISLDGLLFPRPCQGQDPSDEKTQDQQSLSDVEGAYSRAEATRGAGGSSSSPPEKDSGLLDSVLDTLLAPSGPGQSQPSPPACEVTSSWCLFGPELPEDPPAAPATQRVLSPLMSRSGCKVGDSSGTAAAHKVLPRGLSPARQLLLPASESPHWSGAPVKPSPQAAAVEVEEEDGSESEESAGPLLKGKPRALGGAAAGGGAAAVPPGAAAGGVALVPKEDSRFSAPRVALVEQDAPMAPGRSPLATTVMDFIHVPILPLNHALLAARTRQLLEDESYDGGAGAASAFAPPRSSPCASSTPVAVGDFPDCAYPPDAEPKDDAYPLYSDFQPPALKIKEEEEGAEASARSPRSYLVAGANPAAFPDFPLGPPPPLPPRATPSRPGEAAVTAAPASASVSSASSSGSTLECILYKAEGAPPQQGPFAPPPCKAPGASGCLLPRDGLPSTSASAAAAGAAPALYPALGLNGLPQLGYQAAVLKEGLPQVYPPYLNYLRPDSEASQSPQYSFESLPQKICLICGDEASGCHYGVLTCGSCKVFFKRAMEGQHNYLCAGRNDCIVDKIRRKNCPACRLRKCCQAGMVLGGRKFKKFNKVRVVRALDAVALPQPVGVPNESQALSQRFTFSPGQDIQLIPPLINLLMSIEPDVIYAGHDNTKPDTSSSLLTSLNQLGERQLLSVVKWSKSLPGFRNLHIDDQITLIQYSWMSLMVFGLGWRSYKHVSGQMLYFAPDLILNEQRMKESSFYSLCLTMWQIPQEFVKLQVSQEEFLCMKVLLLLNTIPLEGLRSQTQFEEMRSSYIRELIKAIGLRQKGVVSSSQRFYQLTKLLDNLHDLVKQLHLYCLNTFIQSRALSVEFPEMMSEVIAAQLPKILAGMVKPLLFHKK
Method: as §2

[6] = 37° C., read-out: Stability t1/2 in human plasma (converted)
[7] = method of working example 19, summary statement in description, read-out: half-life in human plasma

half-life ([1]; pH = 1.2, 23° C.) [h] | half-life ([1]; pH = 8.0, 23° C.) [h] | half-life [2, 6] [h] | half-life [2, 7] [h] | half-life [3] [h] | IC50 [4] [nM] | IC50 [5] [nM] | SMILES
> 192 | > 192 | > 1000 | > 100 | 33.2 | 0.11 | 0.71 | C=CCOC(=O)N[C@H](C(=O)OC(C)c1ccc([C@H]2C[C@@]3(C)C(CC[C@@]3(O)C(F)(F)C(F)(F)F)C3CCC4=CC(=O)CCC4=C32)cc1)C(C)C (mixture of isomers) [Example 16, (S)-2-Allyloxycarbonylamino-3-methylbutyric acid (RS)-1-[4-((8S,11R,13S,14S,17S)-17-hydroxy-1 3-methyl-3-oxo-1 7-pentafluoroethyl-2,3,6,7,8,11,12,13,14,15,16,17-dodecahydro-1H-cyclopenta[a]phenanthren-11-yl)phenyl]ethyl ester]
> 192 | > 192 | > 1000 | > 100 | 462 | 0.1 | 0.05 | CC(OC(=O)[C@@H]1CCCN1C(=O)OC(C)(C)C)c1ccc([C@H]2C[C@@]3(C)C(CC[C@@]3(O)C(F)(F)C(F)(F)F)C3CCC4=CC(=O)CCC4=C32)cc1 (mixture of isomers) [Example 11, (S)-Pyrrolidine-1,2-dicarboxylic acid 1-tert-butyl ester 2-{(RS)-1-[4-((8S,11R,13S,14S,17S)-17-hydroxy-13-methyl-3-oxo-17-pentafluoroethyl-2,3,6,7,8,11,12,13,14,15,16,17-dodecahydro-1H-cyclopenta[a]phenanthren-11-yl)phenyl]ethyl}ester]
– | – | 231 | > 100 | 0.3 | 0.01 | 0.09 | C=CCOC(=O)N[C@@H](C)C(=O)O[C@H](C)c1ccc([C@H]2C[C@@]3(C)[C@@H](CC[C@@]3(O)C(F)(F)C(F)(F)F)[C@@H]3CCC4=CC(=O)CCC4=C32)cc1 [Example 9, (S)-2-Allyloxycarbonylaminopropionic acid (R)-1-[4-((8S,11R,13S,14S,17S)-17-hydroxy-13-methyl-3-oxo-17-pentafluoroethyl-2,3,6,7,8,11,12,13,14,15,16,17-dodecahydro-1H-cyclopenta[a]phenanthren-11-yl)phenyl]ethyl ester]
– | – | 190 | > 100 | 48.5 | 0.18 | 0.29 | Cc1nccn1CCC(=O)O[C@@H](C)c1ccc([C@H]2C[C@@]3(C)[C@@H](CC[C@@]3(O)C(F)(F)C(F)(F)F)[C@@H]3CCC4=CC(=O)CCC4=C32)cc1 (single isomer, unassigned) [Example 14A]
– | – | 22.9 | – | 3.6 | 0.08 | 0.09 | C=CCOC(=O)N[C@@H](C)C(=O)O[C@@H](C)c1ccc([C@H]2C[C@@]3(C)[C@@H](CC[C@@]3(O)C(F)(F)C(F)(F)F)[C@@H]3CCC4=CC(=O)CCC4=C32)cc1 [Example 10, (S)-2-Allyloxycarbonylaminopropionic acid (S)-1-[4-((8S,11R,13S,14S,17S)-17-hydroxy-13-methyl-3-oxo-17-pentafluoroethyl-2,3,6,7,8,11,12,13,14,15,16,17-dodecahydro-1H-cyclopenta[a]phenanthren-11-yl)phenyl]ethy lester]
– | – | 19.8 | – | 0.8 | 0.29 | 0.15 | Cc1nccn1CCC(=O)O[C@H](C)c1ccc([C@H]2C[C@@]3(C)[C@@H](CC[C@@]3(O)C(F)(F)C(F)(F)F)[C@@H]3CCC4=CC(=O)CCC4=C32)cc1 (single isomer, unassigned) [Example 14B]
> 192 | > 192 | 9.7 | – | 5.3 | 0.27 | 0.74 | CC(OC(=O)[C@@H]1CCCN1)c1ccc([C@H]2C[C@@]3(C)C(CC[C@@]3(O)C(F)(F)C(F)(F)F)C3CCC4=CC(=O)CCC4=C32)cc1 (mixture of isomers) [Example 13, (S)-Pyrrolidine-2-carboxylic acid (RS)-1-[4-((8S,11R,13S,14S,17S)-17-hydroxy-13-methyl-3-oxo-17-pentafluoroethyl-2,3,6,7,8,11,12,13,14,15,16,17-dodecahydro-1H-cyclopenta[a]phenanthren-11-yl)phenyl]ethyl ester hydrochloride]
